Test results: the Deep4Chem optical property database
Several values for one entry are separate records, joined by “and”; a condition that tells them apart may be missing. Equal entries are not always repeated.

Test: solvent given as SMILES
[1] = in c1ccc2c(c1)c1ccccc1n2-c1ccc(-c2ccc(-n3c4ccccc4c4ccccc43)cc2)cc1

Compound `CC\C=C/C=C/C=C/C=C\CCCCCCCC(=O)O` has a fluorescence lifetime (in C1COCCO1) of 3.2 ns, a fluorescence lifetime (in CCCCCC) of 4.5 ns and a fluorescence lifetime (in CCCCCCCCCC) of 5.2 ns. For the same compound, the fluorescence lifetime (in CCCCO) was 2.5 ns, the fluorescence lifetime (in CCOCC) was 5.1 ns and the fluorescence lifetime (in CO) was 1.3 ns. The fluorescence lifetime (in ClC(Cl)Cl) was 1.5 ns.

Work on `C#CCn1c2ccccc2c2cc(/C=C/c3c(Cl)c(C)c4n3[B-](F)(F)[N+]3=C(C)C(Cl)=C(C)C3=C4c3ccc(I)cc3)ccc21` yielded a fluorescence lifetime (in CC#N) of 3.95 ns, a fluorescence lifetime (in CS(C)=O) of 3.06 ns and a fluorescence lifetime (in ClC(Cl)Cl) of 4.24 ns.

With `c1ccc(C2=C3c4ccccc4C4=[N+]3[B-]3(Oc5ccccc54)Oc4ccccc4-c4c5ccccc5c2n43)cc1` (stereo not drawn) the fluorescence lifetime (in ClCCl) was 7 ns.

`CC(C)c1ccc2ccc3cccc4ccc1c2c34` gave a fluorescence lifetime (in CCCCCC) of 50.6 ns, a fluorescence lifetime (in CO) of 149 ns and a fluorescence lifetime (in ClCCl) of 77.8 ns.

For `Cc1cc2nc3c(=O)n(C)c(=O)nc-3n(C)c2cc1C`, the fluorescence lifetime (in CC#N) was 7.1 ns and 6.9 ns.

In the case of `CC(C)(C)c1ccc2c(c1)c1cc(C(C)(C)C)ccc1n2-c1ccc(-n2c3ccc(C(C)(C)C)cc3c3cc(C(C)(C)C)ccc32)c(-c2nccnc2C#N)c1`, the fluorescence lifetime (in c1cc(-n2c3ccccc3c3ccccc32)cc(-n2c3ccccc3c3ccccc32)c1) is reported as 7.2 ns.

Work on `O=C(O)c1ccccc1Nc1cccc(C(F)(F)F)c1` yielded a fluorescence lifetime (in C1CCCCC1) of 2.93 ns, a fluorescence lifetime (in C1CCOC1) of 4.54 ns and a fluorescence lifetime (in C1COCCO1) of 3.97 ns. For the same compound, the fluorescence lifetime (in CC#N) was 4.04 ns, the fluorescence lifetime (in CCOC(C)=O) was 4.65 ns and the fluorescence lifetime (in CN(C)C=O) was 6.28 ns. It also gave a fluorescence lifetime (in CO) of 5.08 ns and a fluorescence lifetime (in ClC(Cl)Cl) of 3.86 ns.

`O=C1c2ccc(-c3ccc(N(c4ccccc4)c4ccccc4)cc3)cc2C(=O)c2ccc(-c3ccc(N(c4ccccc4)c4ccccc4)cc3)cc21` showed a fluorescence lifetime (in Cc1ccccc1) of 9 ns and a fluorescence lifetime [1] of 10.2 ns.

`CC(C)(C)NC(=O)c1cc2ccc3cccc4ccc(c1C(=O)NC(C)(C)C)c2c34` gave a fluorescence lifetime (in ClC(Cl)Cl) of 17.2 ns.

`CC(=O)OC[C@H]1O[C@@H](OCC#Cc2ccc(C3=C4C(C)=CC(/C=C/c5ccc([N+](C)(C)C)cc5)=[N+]4[B-](F)(F)n4c(/C=C/c5ccc([N+](C)(C)C)cc5)cc(C)c43)cc2)[C@H](OC(C)=O)C(OC(C)=O)[C@@H]1OC(C)=O` (stereo partly drawn) showed a fluorescence lifetime (in CC#N) of 5.4 ns.

With `COC(=O)C12N=N[C@](C(=O)OC)(C3C4CCC(C4)C31)C1[C@@H]3CC[C@@H](C3)[C@H]12` (stereo partly drawn) the fluorescence lifetime (in CC#N) was 273 ns.

In the case of `COC(=O)c1ccc(C#Cc2ccccc2)cc1`, the fluorescence lifetime (in C1CCCCC1) is reported as 0.59 ns, the fluorescence lifetime (in CC#N) is reported as 0.52 ns and the fluorescence lifetime (in CC(C)O) is reported as 0.64 ns. It also gave a fluorescence lifetime (in CCCCCC) of 0.55 ns, a fluorescence lifetime (in CCCCCCCCCCCCCCCC) of 0.55 ns and a fluorescence lifetime (in CCCCCCCCCCCCCCCCCl) of 0.59 ns. The fluorescence lifetime (in CO) was 0.62 ns.

`CCCCCCCCCCCCOc1cc2c3c(ccc4c5c(SCCCCCCCCCCCC)cc6c7c(ccc(c1c34)c75)C(=O)N(C1CCCCC1)C6=O)C(=O)N(C1CCCCC1)C2=O` showed a fluorescence lifetime (in ClC(Cl)Cl) of 7.8 ns.

`c1ccc(-c2nc(-c3ccccc3)nc(-c3ccc(-n4c5ccccc5c5cc(-n6c7ccccc7c7ccccc76)ccc54)cc3)n2)cc1` showed a fluorescence lifetime (in Cc1ccccc1) of 6.5 ns.

Compound `F[B-]1(F)OC(c2cc3c4c(c2)CCCN4CCC3)=Cc2cccc[n+]21` has a fluorescence lifetime (in ClC(Cl)Cl) of 3.19 ns.

In the case of `CC[n+]1nc2cc3c4c(c2c2ccccc21)CCCN4CCC3`, the fluorescence lifetime (in O) is reported as 3.6 ns.

In the case of `N#C/C(=C\c1ccncc1)c1nc(-c2ccc(Cl)cc2)cs1`, the fluorescence lifetime (in CC#N) is reported as 4.24 ns.

For `CCOC(=O)C1=CN(c2ccccc2)C=CC1c1ccccc1` (stereo not drawn), the fluorescence lifetime (in C1CCOC1) was 7.14 ns and the fluorescence lifetime (in CO) was 7.55 ns.

Compound `C1=CC2CC1C1C2[C@@]2(c3ccccc3)N=NC1(c1ccccc1)[C@@H]1C[C@H]12` (stereo partly drawn) has a fluorescence lifetime (in CC#N) of 216 ns.

`F[B-]1(F)n2c(/C=C/c3ccc(C(=C(c4ccccc4)c4ccccc4)c4ccccc4)cc3)ccc2C(c2ccccc2)=C2C=CC(/C=C/c3ccc(C(=C(c4ccccc4)c4ccccc4)c4ccccc4)cc3)=[N+]21` gave a fluorescence lifetime (in C1CCOC1) of 3.98 ns.

Compound `COc1cc2c(cc1-c1ccccc1)Cc1c3c(c4c(c1-2)-c1cc(OC)c(-c2ccccc2)cc1C4)C(=O)N(CCC(C)C)C3=O` has a fluorescence lifetime (in C1CCOC1) of 3.87 ns, a fluorescence lifetime (in CC#N) of 6.33 ns and a fluorescence lifetime (in CC(C)=O) of 5.36 ns. It also gave a fluorescence lifetime (in CCOC(C)=O) of 3.99 ns, a fluorescence lifetime (in CS(C)=O) of 6.41 ns and a fluorescence lifetime (in Cc1ccccc1) of 2.55 ns. It also gave a fluorescence lifetime (in ClC(Cl)Cl) of 5.95 ns and a fluorescence lifetime (in ClCCl) of 5.64 ns.

Work on `CC[B-]1(CC)c2cccc3cc4ccccc4c(c23)-c2cccc(C)[n+]21` yielded a fluorescence lifetime (in ClCCl) of 4.1 ns.

With `F[B-]1(F)n2c(c3cccc4cccc2c43)=Nc2ccc3ccccc3[n+]21` the fluorescence lifetime (in ClCCl) was 6.1 ns.

Compound `C(#Cc1ccccc1C#Cc1ccccc1)c1ccccc1` has a fluorescence lifetime (in CC#N) of 1.47 ns.

Work on `N#Cc1cc(-n2c3ccccc3c3ccccc32)c(-n2c3ccccc3c3ccccc32)cc1C#N` yielded a fluorescence lifetime (in Cc1ccccc1) of 28.5 ns.

`O=C1c2ccccc2-c2nc3c(F)c(F)c(F)c(F)c3n21` gave a fluorescence lifetime (in ClCCl) of 9.5 ns.

Work on `CCCCc1cc(-c2cccc(COC)c2)oc1-c1cccc(COC)c1` yielded a fluorescence lifetime (in ClC(Cl)Cl) of 1.35 ns.

In the case of `O=C(c1ccc(N2c3ccccc3Sc3ccccc32)cc1)c1ccc2sc3ccccc3c2c1`, the fluorescence lifetime [1] is reported as 37.4 ns.

For `C#CCNC1=C2C=CC=[N+]2[B-](F)(F)n2cccc21`, the fluorescence lifetime (in C1CCCCC1) was 6.36 ns and 5.34 ns, the fluorescence lifetime (in CC(C)=O) was 4.92 ns and the fluorescence lifetime (in CCCCO) was 6.02 ns. The fluorescence lifetime (in CCCO) was 5.16 ns, the fluorescence lifetime (in CCO) was 4.14 ns and 3.81 ns and the fluorescence lifetime (in CCOC(C)=O) was 5.13 ns. The fluorescence lifetime (in CN(C)C=O) was 2.98 ns, the fluorescence lifetime (in CO) was 3.22 ns and the fluorescence lifetime (in CS(C)=O) was 1.73 ns. It also gave a fluorescence lifetime (in Cc1ccccc1) of 6.56 ns, a fluorescence lifetime (in ClC(Cl)Cl) of 5.29 ns and a fluorescence lifetime (in OCC(F)(F)F) of 6.34 ns. For the same compound, the fluorescence lifetime (in c1ccccc1) was 6.28 ns.
